Article PMC7612079 (Science translational medicine, 2021)

Tests used:
Format in all cases: biochemical
TANK-binding kinase 1 = molecular target: T1, TANK-binding kinase 1 (Homo sapiens, UniProt Q9UHD2); test: single-point panel of […] kinases at […]; details: read-out: % inhibition at 1 μM
T1 sequence (Q9UHD2 1-729): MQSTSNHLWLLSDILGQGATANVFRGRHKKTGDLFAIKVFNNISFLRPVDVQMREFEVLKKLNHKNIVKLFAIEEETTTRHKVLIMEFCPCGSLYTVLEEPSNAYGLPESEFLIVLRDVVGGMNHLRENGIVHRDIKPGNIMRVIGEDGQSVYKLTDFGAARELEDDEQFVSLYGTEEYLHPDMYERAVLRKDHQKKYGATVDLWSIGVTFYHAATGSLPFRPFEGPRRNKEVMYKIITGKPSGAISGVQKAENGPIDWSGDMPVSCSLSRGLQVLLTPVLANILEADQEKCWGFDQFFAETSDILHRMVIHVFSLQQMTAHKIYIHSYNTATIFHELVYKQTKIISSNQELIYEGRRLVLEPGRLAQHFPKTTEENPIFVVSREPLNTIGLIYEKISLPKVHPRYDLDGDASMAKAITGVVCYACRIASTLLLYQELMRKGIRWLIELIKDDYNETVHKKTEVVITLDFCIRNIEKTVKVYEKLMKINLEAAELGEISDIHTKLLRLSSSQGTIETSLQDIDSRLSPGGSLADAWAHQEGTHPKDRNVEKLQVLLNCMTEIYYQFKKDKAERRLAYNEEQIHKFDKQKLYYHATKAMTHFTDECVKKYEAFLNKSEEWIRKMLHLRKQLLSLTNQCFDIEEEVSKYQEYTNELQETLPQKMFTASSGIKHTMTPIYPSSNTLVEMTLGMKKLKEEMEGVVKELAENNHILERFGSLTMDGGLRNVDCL

AMPK = AMPK (Homo sapiens, UniProt P54646); test: single-point panel of […] kinases at […]; details: read-out: % inhibition at 1 μM
Sequence of AMPK (P54646 whole entry): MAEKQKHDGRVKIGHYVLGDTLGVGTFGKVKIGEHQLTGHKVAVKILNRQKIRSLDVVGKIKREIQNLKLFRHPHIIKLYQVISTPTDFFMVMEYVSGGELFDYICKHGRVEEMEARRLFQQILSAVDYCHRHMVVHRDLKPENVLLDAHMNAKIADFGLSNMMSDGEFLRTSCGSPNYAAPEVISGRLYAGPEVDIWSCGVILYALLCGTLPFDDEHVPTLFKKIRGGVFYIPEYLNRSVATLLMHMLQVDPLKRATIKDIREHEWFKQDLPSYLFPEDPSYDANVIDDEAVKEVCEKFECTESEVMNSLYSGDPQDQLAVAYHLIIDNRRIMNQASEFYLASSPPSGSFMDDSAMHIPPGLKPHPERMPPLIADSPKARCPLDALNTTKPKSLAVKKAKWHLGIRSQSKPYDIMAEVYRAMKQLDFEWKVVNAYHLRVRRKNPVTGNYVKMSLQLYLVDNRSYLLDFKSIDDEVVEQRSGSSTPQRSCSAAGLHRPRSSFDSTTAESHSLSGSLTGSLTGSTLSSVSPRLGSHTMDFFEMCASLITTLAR
Sequence of AMPK (Q9Y478 2-270 partner): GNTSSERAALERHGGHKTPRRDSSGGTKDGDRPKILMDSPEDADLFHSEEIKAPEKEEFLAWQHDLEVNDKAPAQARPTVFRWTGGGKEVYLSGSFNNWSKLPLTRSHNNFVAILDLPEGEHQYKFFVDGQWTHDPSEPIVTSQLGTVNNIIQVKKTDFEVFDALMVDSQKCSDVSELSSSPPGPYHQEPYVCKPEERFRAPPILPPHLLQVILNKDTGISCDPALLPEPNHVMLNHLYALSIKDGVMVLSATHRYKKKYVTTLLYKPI
Sequence of AMPK (P54619 whole entry partner): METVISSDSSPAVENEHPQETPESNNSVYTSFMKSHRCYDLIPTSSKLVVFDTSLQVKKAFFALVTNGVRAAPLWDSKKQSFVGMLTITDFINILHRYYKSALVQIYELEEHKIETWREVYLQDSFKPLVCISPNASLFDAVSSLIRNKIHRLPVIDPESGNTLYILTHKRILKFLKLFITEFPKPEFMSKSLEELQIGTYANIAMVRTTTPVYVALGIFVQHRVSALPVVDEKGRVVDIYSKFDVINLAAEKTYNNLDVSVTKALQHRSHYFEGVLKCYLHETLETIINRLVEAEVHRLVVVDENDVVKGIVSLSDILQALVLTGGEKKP

ULK2 = molecular target: T2, ULK2 (Homo sapiens, UniProt Q8IYT8); test: single-point kinase panel at […]
T2 sequence (Q8IYT8 1-1036): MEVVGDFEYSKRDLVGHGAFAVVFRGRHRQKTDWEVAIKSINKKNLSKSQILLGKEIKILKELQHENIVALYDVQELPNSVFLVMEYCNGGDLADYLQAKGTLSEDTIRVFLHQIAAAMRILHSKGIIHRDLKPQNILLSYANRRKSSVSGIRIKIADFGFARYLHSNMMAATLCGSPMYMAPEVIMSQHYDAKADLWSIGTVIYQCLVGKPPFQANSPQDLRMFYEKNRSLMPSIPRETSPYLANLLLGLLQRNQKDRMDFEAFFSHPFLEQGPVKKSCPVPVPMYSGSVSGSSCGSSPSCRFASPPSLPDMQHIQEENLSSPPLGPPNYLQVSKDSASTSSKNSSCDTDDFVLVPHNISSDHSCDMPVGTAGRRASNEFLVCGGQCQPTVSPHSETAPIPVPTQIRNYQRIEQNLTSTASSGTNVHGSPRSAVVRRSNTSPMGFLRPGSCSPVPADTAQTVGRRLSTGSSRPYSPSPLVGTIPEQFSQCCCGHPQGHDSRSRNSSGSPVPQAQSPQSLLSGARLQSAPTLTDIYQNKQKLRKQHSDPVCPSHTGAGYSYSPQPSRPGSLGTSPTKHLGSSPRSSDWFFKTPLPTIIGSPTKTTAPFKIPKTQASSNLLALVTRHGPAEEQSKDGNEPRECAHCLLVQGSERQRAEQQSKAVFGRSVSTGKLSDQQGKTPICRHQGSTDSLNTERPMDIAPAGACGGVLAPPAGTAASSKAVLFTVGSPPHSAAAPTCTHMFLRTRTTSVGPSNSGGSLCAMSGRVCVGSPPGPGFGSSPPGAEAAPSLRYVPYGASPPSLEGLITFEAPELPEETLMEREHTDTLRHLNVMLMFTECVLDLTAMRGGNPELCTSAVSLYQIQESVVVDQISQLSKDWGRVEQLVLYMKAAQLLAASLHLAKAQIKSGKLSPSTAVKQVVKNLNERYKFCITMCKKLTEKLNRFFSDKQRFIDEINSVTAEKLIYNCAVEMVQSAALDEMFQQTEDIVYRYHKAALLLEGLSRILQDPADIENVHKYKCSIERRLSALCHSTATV

[1] = molecular target: T3, ULK1 (unc-51–like autophagy activating kinase 1) (Homo sapiens, UniProt O75385); test: single-point kinase panel at […]; details: read-out: % inhibition at 1 μM
T3 sequence (O75385 1-1050): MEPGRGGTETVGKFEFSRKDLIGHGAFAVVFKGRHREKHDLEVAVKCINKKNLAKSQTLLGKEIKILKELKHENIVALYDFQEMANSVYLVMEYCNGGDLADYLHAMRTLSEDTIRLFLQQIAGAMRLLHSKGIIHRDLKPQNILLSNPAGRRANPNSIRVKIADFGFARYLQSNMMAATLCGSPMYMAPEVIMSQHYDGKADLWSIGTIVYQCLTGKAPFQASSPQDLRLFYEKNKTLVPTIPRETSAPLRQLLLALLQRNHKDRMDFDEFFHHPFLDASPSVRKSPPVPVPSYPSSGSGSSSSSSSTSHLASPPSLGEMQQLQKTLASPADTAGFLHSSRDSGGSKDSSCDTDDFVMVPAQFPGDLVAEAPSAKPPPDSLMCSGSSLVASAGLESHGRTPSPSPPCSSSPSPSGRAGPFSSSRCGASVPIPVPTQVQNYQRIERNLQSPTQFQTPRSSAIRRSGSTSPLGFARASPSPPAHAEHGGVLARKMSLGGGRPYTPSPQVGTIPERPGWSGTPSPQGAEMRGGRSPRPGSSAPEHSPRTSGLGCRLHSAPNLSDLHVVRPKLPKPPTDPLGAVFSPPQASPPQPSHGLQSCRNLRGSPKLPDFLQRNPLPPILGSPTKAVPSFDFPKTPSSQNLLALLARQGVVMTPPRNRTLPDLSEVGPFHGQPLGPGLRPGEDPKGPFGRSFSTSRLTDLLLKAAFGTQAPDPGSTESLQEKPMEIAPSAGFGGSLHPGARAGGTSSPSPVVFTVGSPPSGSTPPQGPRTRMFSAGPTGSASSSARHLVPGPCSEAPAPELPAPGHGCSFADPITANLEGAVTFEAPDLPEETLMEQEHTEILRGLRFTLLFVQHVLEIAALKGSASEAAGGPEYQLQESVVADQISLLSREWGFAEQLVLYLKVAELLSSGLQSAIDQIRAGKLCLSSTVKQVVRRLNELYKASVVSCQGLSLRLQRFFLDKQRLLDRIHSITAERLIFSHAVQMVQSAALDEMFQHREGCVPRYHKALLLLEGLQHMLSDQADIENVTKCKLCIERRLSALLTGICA

[2] = molecular target: T3, ULK1 (unc-51–like autophagy activating kinase 1); test: radiometric […] kinase assay with myelin basic protein, […] ATP

Work on `CN1CCc2cc(Nc3ncc(C4CC4)c(NCCCNC(=O)C4CCC4)n3)ccc2C1` [MRT68921] yielded an inhibition at 1 µM (TANK-binding kinase 1) greater than 90%, an inhibition at 1 µM (AMPK) greater than 90% and an inhibition at 1 µM (ULK2; read-out: % inhibition at 1 μM) greater than 90%. It also gave an inhibition at 1 µM [1] greater than 90%.

In the case of MRT403, the IC50 [2] is reported as 1.6 nM and the “% inhibition at 1 μM” value (ULK2) is reported as greater than 90.
